Among the test systems are SW-620 colon; NCI-H226 lung; M14 melanoma; PC-3 prostate; MALME-3M melanoma; COLO 205 colon; IGROV1 ovarian; HCT-116 colon; MOLT-4 leukemia; NCI-H522 lung.
What all share (experiment): NCI tumour cell line growth inhibition, 48 h

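Protocol summary: plate cells (96-well), add compound at 5 concentrations, incubate 48 h, interpolate endpoints linearly. GI50: concentration for 50% inhibition of growth. TGI marks complete inhibition of growth.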

On to `CCCCCCCCCCCCCCCC[N+](C)(CCO)Cc1cnc[nH]1` (stereo unspecified), for which the GI50 was 0.978 µM in the test on SW-620 colon; 1.51 µM with NCI-H226 lung; 0.598 µM with M14 melanoma; 0.441 µM in the test with PC-3 prostate; 2.01 µM with MALME-3M melanoma. Further, the TGI turned out to be 13.7 µM with SW-620 colon; 7.72 µM with NCI-H226 lung; 2.22 µM with M14 melanoma; 2.37 µM in the test on PC-3 prostate; 6.54 µM with MALME-3M melanoma.
For `O=C(/C=N/O)Nc1cc(Cl)c(Cl)cc1Cl`, the TGI in the test with SW-620 colon is above 100 µM; in the test on COLO 205 colon it was 87.4 µM; with IGROV1 ovarian, above 100 µM; in the test on HCT-116 colon it was 90.1 µM; in the test on M14 melanoma it was above 100 µM; in the test on PC-3 prostate it was above 100 µM. Besides, the TGI was 47.9 µM in the test with MOLT-4 leukemia, 67.8 µM in the test with NCI-H522 lung and above 100 µM in the test on MALME-3M melanoma.
Regarding `Cc1ccc(C(=O)Nc2ccc(S(=O)(=O)O)c3cc(S(=O)(=O)O)cc(S(=O)(=O)O)c23)cc1NC(=S)Nc1cc(C(=O)Nc2ccc(S(=O)(=O)O)c3cc(S(=O)(=O)O)cc(S(=O)(=O)O)c23)ccc1C`, the TGI with SW-620 colon, in the test with IGROV1 ovarian, with NCI-H226 lung, in the test with HCT-116 colon, in the test with M14 melanoma and in the test with PC-3 prostate was above 75 µM each time. The TGI in the test with MOLT-4 leukemia, in the test with NCI-H522 lung and in the test with MALME-3M melanoma was above 75 µM throughout.
`OC(COc1ccc(F)cc1)Cn1cnc2c(Cl)ncnc21` (stereo unspecified): the GI50 in the test on SW-620 colon was 72.9 µM; with COLO 205 colon, above 100 µM; in the test with IGROV1 ovarian, 47.4 µM; in the test with NCI-H226 lung it was above 100 µM; in the test on HCT-116 colon, above 100 µM; in the test on PC-3 prostate, above 100 µM. For the same compound, the GI50 was 32.5 µM in the test with MOLT-4 leukemia, above 100 µM with NCI-H522 lung and 33.6 µM in the test with MALME-3M melanoma. Besides, the TGI with SW-620 colon, in the test on COLO 205 colon, in the test with IGROV1 ovarian, in the test with NCI-H226 lung, with HCT-116 colon and in the test with PC-3 prostate was above 100 µM in each case. For the same compound, the TGI with MOLT-4 leukemia, in the test on NCI-H522 lung and with MALME-3M melanoma was above 100 µM throughout.
For `O=Cc1ccc(-c2ccc(-c3nc4ccccc4o3)cc2)s1`, the GI50 in the test on SW-620 colon is 71.2 µM; in the test on COLO 205 colon, 32.1 µM; with IGROV1 ovarian, 30.1 µM; in the test on NCI-H226 lung, 31.5 µM; in the test on HCT-116 colon, 19.3 µM; in the test with M14 melanoma, 26.6 µM. Further, the GI50 is above 100 µM in the test on PC-3 prostate, 21.6 µM in the test on MOLT-4 leukemia and 47.3 µM in the test with NCI-H522 lung. Besides, the TGI in the test with SW-620 colon is above 100 µM; in the test with COLO 205 colon, above 100 µM; in the test with IGROV1 ovarian, above 100 µM; in the test on NCI-H226 lung, 90.2 µM; with HCT-116 colon it was 42.6 µM; in the test with M14 melanoma, 70 µM. Moreover, the TGI in the test with PC-3 prostate, with MOLT-4 leukemia and in the test on NCI-H522 lung was above 100 µM each time.
As to `Nc1nc2cc3ccc(C4CC(O)C(CO)O4)cc3cc2c(=O)[nH]1` (stereo unspecified), the GI50 with SW-620 colon, in the test with COLO 205 colon, in the test on IGROV1 ovarian, in the test on NCI-H226 lung, in the test on HCT-116 colon and in the test on M14 melanoma was above 100 µM throughout. Also, the GI50 in the test on PC-3 prostate, in the test with MOLT-4 leukemia and in the test with NCI-H522 lung was above 100 µM throughout. The TGI with SW-620 colon, in the test on COLO 205 colon, in the test on IGROV1 ovarian, in the test with NCI-H226 lung, in the test with HCT-116 colon and in the test on M14 melanoma was above 100 µM in each case. For the same compound, the TGI in the test on PC-3 prostate, with MOLT-4 leukemia and with NCI-H522 lung was above 100 µM throughout.
As to `O=C(O)CCC/C=C\C[C@H]1C=CC(=O)/C1=C/C[C@@H](O)CCc1cccc(C(F)(F)F)c1`, the GI50 with SW-620 colon is 3.1 µM; in the test on COLO 205 colon, 2.26 µM; in the test on IGROV1 ovarian it was 3.41 µM; in the test on HCT-116 colon, 1.27 µM; in the test on M14 melanoma it was 2 µM; in the test on PC-3 prostate it was 3.12 µM. For the same compound, the figures for the GI50 in the test on MOLT-4 leukemia, with NCI-H522 lung and in the test on MALME-3M melanoma were 2.21 µM, 1.35 µM and 4.75 µM, respectively. Besides, the TGI with SW-620 colon came to 10.1 µM; in the test on COLO 205 colon, 5.49 µM; in the test with IGROV1 ovarian, 13.6 µM; in the test on HCT-116 colon it was 3.17 µM; in the test on M14 melanoma, 6.76 µM; with PC-3 prostate, 10.3 µM. Also, the values for the TGI in the test with MOLT-4 leukemia, in the test on NCI-H522 lung and in the test on MALME-3M melanoma were 7.34 µM, 3.8 µM and 19.3 µM, respectively.
Take `Cc1nc(-c2ccccc2)cc2c1c(=O)oc1ccccc12`: the TGI in the test on SW-620 colon, in the test with COLO 205 colon, with IGROV1 ovarian, in the test with NCI-H226 lung, with HCT-116 colon and in the test with M14 melanoma was above 100 µM each time. Moreover, the TGI in the test on MOLT-4 leukemia, in the test on NCI-H522 lung and in the test with MALME-3M melanoma was above 100 µM each time.
With `CC1(C)OB(O)OC1(C)C`, the TGI with SW-620 colon, with COLO 205 colon, in the test with IGROV1 ovarian, with NCI-H226 lung, in the test with HCT-116 colon and in the test with M14 melanoma was above 100 µM in each case. The TGI in the test on MOLT-4 leukemia, in the test with NCI-H522 lung and with MALME-3M melanoma was above 100 µM in each case.
Regarding `O=S(=O)(SCc1ccccc1)C(c1ccccc1)c1ccccc1`, the TGI in the test with SW-620 colon is 26.9 µM; in the test with COLO 205 colon, 36.8 µM; in the test on IGROV1 ovarian it was above 100 µM; with NCI-H226 lung, 54.5 µM; in the test with HCT-116 colon, above 100 µM; with M14 melanoma, 59.7 µM. Besides, the TGI in the test on MOLT-4 leukemia is 43.7 µM; with NCI-H522 lung it was 57.8 µM; in the test with MALME-3M melanoma, above 100 µM.
Regarding `CC#C/C(=N\OC[C@H]1COCCN1)c1ccc2ncnc(Nc3ccc(OCc4cccc(F)c4)c(Cl)c3)c2c1`, the GI50 was 1.77 µM with COLO 205 colon; 12 µM in the test with NCI-H226 lung; 1.69 µM with HCT-116 colon; 1.76 µM in the test on M14 melanoma; 1.81 µM in the test on PC-3 prostate; 1.8 µM with MOLT-4 leukemia. The GI50 in the test with NCI-H522 lung was 0.393 µM. In addition, the TGI in the test on COLO 205 colon worked out at 3.33 µM; with NCI-H226 lung, 40.3 µM; with HCT-116 colon, 3.42 µM; with M14 melanoma it was 3.59 µM; in the test with PC-3 prostate, 3.98 µM; in the test on MOLT-4 leukemia it was 3.91 µM. This compound had a TGI with NCI-H522 lung of 2.25 µM.

Values taken from PubChem BioAssay (NCI).
